Experiments:
[1] = target: staphylococcal α-hemolysin (αHL) channels (Staphylococcus aureus, UniProt P09616); assay type: biochemical
[2] = Gramicidin D conductance change in lipid bilayer formed across nanoaperture; assay type: biochemical; conditions: 5 to 20 μl of 2 mg/ml gD in ethanol added to each bath; within minutes; capacitance remained constant
From the text: Lipid bilayers were formed by the method of Montal and Mueller (1972). In practicing the Langmuir-Blodgett technique, one raises two lipid monolayers across an aperture, allowing the lipids to align their hydrophobic tail portions across the aperture so as to form a lipid bilayer. Because of the hydrophobic nature of the lipid tails, in order to form stable bilayers the surface of a BSP must also be hydrophobic. If the substrate is hydrophobic, the lipids can smoothly transition from coating the substrate to spanning the aperture. To reverse the wetting properties of the naturally hydrophilic silicon nitride, the silicon nitride was coated with an alkylsilane (octyltrichlorosilane). Application of this coating was quite simple and very effective. It was not found to be possible to form a bilayer with untreated devices. Use of longer carbon chain silanes or alternative-materials to make the surface even more hydrophobic would further increase bilayer stability.
For smaller apertures, it was more difficult to observe the capacitance change the background. In this case, membrane-bound proteins that affect the electrical properties of the bilayer, such as carriers and ion channels, offered the best proof of the formation of a bilayer. The ion channel peptide Gramicidin D (gD), was chosen for ease of use and large conductance change. […]

staphylococcal α-hemolysin (αHL) channels, sequence (P09616 27-319 limits assumed): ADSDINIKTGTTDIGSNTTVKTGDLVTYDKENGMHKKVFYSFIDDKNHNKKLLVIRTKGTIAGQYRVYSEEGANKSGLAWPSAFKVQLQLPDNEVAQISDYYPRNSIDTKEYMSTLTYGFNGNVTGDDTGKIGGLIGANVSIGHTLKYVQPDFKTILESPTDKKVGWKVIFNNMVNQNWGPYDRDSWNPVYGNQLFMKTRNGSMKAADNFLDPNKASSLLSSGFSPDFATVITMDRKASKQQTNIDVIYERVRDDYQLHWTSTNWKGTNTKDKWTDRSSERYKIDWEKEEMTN

OC[C@H]1O[C@@H]2O[C@H]3[C@H](O)[C@@H](O)[C@@H](O[C@H]4[C@H](O)[C@@H](O)[C@@H](O[C@H]5[C@H](O)[C@@H](O)[C@@H](O[C@H]6[C@H](O)[C@@H](O)[C@@H](O[C@H]7[C@H](O)[C@@H](O)[C@@H](O[C@H]8[C@H](O)[C@@H](O)[C@@H](O[C@H]1[C@H](O)[C@H]2O)O[C@@H]8CO)O[C@@H]7CO)O[C@@H]6CO)O[C@@H]5CO)O[C@@H]4CO)O[C@@H]3CO [βCD, β-cyclodextrin]
current reduction when a channel becomes blocked [1]: 70±4%

Gramicidin D
conductance of the bilayer [2]: dramatically increased
